From patent US8802711B2, “TRPV1 antagonists” (AbbVie Inc., priority 2011, dated 2014)
pIC50: −log10 of the molar value. Where two headings read alike, the source gives them in different places.

Columns and labels:
Sprague-Dawley rats [1] = test: Sodium iodoacetate-induced knee joint osteoarthritic pain model; format: in vivo, rat; settings: 1 hour after dosing, % return to normalcy of hind limb grip force
Source text: (§1) Adult male Sprague-Dawley rats (250-300 g body weight, Charles River Laboratories, Portage, Mich.) were used. Animal handling and experimental protocols were approved by the Institutional Animal Care and Use Committee (IACUC) at Abbott Laboratories. For all surgical procedures, animals were maintained under isoflurane anesthesia (4-5% to induce, 1-3% to maintain), and the incision sites were sterilized using a 10% povidone-iodine solution prior to and after surgeries.
Unilateral knee joint osteoarthritis was induced in the rats by a single intra-articular (i.a.) injection of sodium iodoacetate (3 mg in 0.05 mL sterile isotonic saline) into the right knee joint cavity under light isoflurane anesthesia using a 26 G needle. […] Pain behavioral assessment of hind limb grip force was conducted by recording the maximum compressive force exerted on the hind limb strain gauge setup, in a commercially available grip force measurement system (Columbus Instruments, Columbus, Ohio), to elicit paw withdrawal. The grip force data was converted to a maximum hindlimb cumulative compressive force (CFmax) (gram force)/kg body weight for each animal. The analgesic effects of test compounds were determined 20 days following the i.a. injection of sodium iodoacetate. The vehicle control group for each compound being tested was assigned 0% whereas the age matched naïve group was assigned as being 100% (normal). The % effect for each dose group was then expressed as % return to normalcy compared to the naïve group. Test compounds were administered orally in 10% ethanol/20% Tween 80/70% polyethylene glycol-400 vehicle at a volume of 2 mL/kg. The assessment of the analgesic effects of test compounds was made 1 hour following oral administration. The assessment of the analgesic effects of test compounds can be made following a single dose or following repeated administration wherein the frequency of dosing is 1 to 2 times daily. The duration of such repeated daily dosing may last for any time greater than one day. A typical duration of repeated daily dosing is about 5 days to about 12 days.

Sprague-Dawley rats [2] = test: Rat tail immersion assay (noxious thermosensation); format: in vivo; settings: rat, 100 μmol/kg oral, one hour post dosing, 55° C. water bath, relative to vehicle
Description: as §1
Compounds were tested for their effects on noxious thermosensation using the tail immersion assay. Testing was performed one hour following oral administration of 100 μmol/kg of the compound in 10% ethanol/20% Tween-80/70% PEG-400 (2 mL/kg). Morphine (6 mg/kg) was administered interperitoneally (i.p.) using saline (2 mL/kg) as the vehicle. For testing, a circulating water bath was heated to 55° C. Thirty to sixty minutes post dosing, the rats were handled for a few seconds to calm them down and then cupped with their back against the tester's hand at a slight angle with head facing away from the tester. With rat in one hand and a 0.01 second stopwatch in the other hand, the tail was quickly immersed 6-8 cm in the water bath or to a distance leaving 2-3 cm of tail out of water. The timer was started simultaneously. When the rat flinched or attempted withdrawal, timer was immediately stopped and the rat's tail was quickly removed from water bath. This response latency (in seconds) was recorded. Process was repeated 3 times with 3-4 minutes between readings and the average response latency was calculated.
For a given example, a percent increase in the average response latency (in seconds) for tail withdrawal relative to a vehicle control was determined. % increase=[(tc−tv)/tv]×100%
tc=response latency (in seconds) with oral dosing of compounds
tv=response latency (in seconds) with oral dosing of vehicle
The % increases in tail withdrawal latency relative to vehicle control are divided into the following categories: […]

[3] = target: human TRPV1 receptor (hTRPV1) (Homo sapiens (Human), UniProt Q8NER1); test: Capsaicin activation assay (FLIPR intracellular Ca2+); format: cell-based; settings: inhibition of capsaicin-induced intracellular Ca2+ increase, read-out: hTRPV1 cap IC50
Sequence of human TRPV1 receptor (hTRPV1) (Q8NER1 whole entry): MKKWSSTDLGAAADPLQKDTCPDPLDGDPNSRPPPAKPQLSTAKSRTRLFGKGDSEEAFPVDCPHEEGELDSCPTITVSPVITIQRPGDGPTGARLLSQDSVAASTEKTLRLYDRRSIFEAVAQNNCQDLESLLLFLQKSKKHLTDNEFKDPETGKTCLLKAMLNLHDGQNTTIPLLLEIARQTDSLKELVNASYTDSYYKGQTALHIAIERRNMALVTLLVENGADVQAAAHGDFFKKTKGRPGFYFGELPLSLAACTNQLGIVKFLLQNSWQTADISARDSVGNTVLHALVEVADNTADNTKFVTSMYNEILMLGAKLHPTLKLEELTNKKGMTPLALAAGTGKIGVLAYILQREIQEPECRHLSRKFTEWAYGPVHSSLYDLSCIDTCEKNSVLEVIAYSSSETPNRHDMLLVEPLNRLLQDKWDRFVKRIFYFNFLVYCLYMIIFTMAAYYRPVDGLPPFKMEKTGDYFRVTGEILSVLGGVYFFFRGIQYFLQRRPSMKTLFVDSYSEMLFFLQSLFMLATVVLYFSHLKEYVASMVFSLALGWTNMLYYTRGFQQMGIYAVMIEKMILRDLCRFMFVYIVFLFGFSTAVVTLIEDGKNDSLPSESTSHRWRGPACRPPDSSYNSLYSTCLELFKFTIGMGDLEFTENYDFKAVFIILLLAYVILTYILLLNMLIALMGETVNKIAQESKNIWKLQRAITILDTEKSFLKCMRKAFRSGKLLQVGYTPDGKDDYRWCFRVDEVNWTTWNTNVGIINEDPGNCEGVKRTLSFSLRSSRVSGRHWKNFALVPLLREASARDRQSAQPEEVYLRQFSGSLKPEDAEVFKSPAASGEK
Summary of the method: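 Antagonism measured as [Ca2+]i fluorescence on FLIPR Tetra: compounds given 3 min ahead of capsaicin, added as 200 nM (4×), to dye-loaded hTRPV1-HEK293 cells. Response taken as baseline-subtracted peak, normalized to the 50 nM capsaicin control; 12-point one-third-log titrations.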

Sprague-Dawley rats [4] = test: Rat acute capsaicin-induced flinching behavior; format: in vivo; settings: percent reduction in number of flinching behaviors
Source text: as §1
Rats were placed in individual observation cages. […] One hour after administration of the test compound, 2.5 μg of capsaicin in a 10 μL solution of 10% ethanol/90% hydroxypropyl-β-cyclodextrin was injected subcutaneously into the dorsal aspect of the right hind paw. The observation cage was then suspended above mirrors in order to facilitate observation. […] The number of flinching behaviors of the injured paw was recorded during the five minute observation period (Gilchrist, H. D.; Allard, B. L.; Simone, D. A.; Enhanced withdrawal responses to heat and mechanical stimuli following intraplantar injection of capsaicin in rats. Pain, 1996, 67, 179-188). The percent reduction in the number of flinching behaviors produced with oral administration of representative compounds of the present invention relative to control-treated animals (% effect) is reported in Table 3.

[5] = Table 1, HEK293 cells expressing human TRPV1

pIC50 [3, 5] | pIC50 ([3]; Table 2) | SMILES | % effect (Sprague-Dawley rats [1]; 10 mg/kg p.o.) [%] | % Increase in tail withdrawal latency (Sprague-Dawley rats [2]) | % effect (Sprague-Dawley rats [4]; 100 μmol/kg p.o.) [%] | % effect (Sprague-Dawley rats [4]; 10 μmol/kg p.o.) [%] | change in vivo at 100 µmol/kg (Sprague-Dawley rats [2]; 1 h, read-out: % Increase in tail withdrawal latency) [%] | % effect (Sprague-Dawley rats [1]; 100 μmol/kg p.o.) [%]
7.74 | 7.66 | Cn1ncc2c(NC(=O)N[C@@H]3CC[C@H](c4ccccc4)C3)cccc21 [Example 4, 1-(1-methyl-1H-indazol-4-yl)-3-[(1R,3S)-3-phenylcyclopentyl]urea] | 50 | − |  |  |  | 
8.40 | 8.40 | Cc1cc2c(NC(=O)N[C@@H]3CC[C@H](c4ccccc4)C3)c(F)ccc2cn1 [Example 6, 1-(6-fluoro-3-methylisoquinolin-5-yl)-3-[(1R,3S)-3-phenylcyclopentyl]urea] |  | − | 88 |  |  | 
7.52 | 7.52 | O=C(Nc1cccc2[nH]ncc12)N[C@H]1CC[C@H](c2ccccc2)C1 [Example 14, 1-(1H-indazol-4-yl)-3-[(1S,3S)-3-phenylcyclopentyl]urea] |  | − |  | 76 |  | 
7.70 | 7.70 | O=C(Nc1cccc2[nH]ncc12)N[C@@H]1CC[C@@H](c2ccccc2)C1 [Example 21, 1-(1H-indazol-4-yl)-3-[(1R,3R)-3-phenylcyclopentyl]urea] | 37 |  |  |  | 10 to 25 | 
7.19 | 7.19 | O=C(Nc1cccc2[nH]ncc12)N[C@H]1CC[C@@H](c2ccccc2)C1 [Example 28, 1-(1H-indazol-4-yl)-3-[(1S,3R)-3-phenylcyclopentyl]urea] |  | − |  | 60 |  | 78
